# Assay results from PMC8333062, “Chemical tools for epichaperome-mediated interactome dysfunctions of the central nervous system” (Nature Communications, 2021).
# Tests used:
# CYP2A6 = target: T1, CYP2A6 (Homo sapiens, UniProt P11509); test: Cytochrome P450 profiling, tranylcypromine; assay type: in vitro ADME; conditions: for % PU-HZ151 remaining: Tranylcypromine
# T1 construct: PU-HZ151 (1 µM) was incubated with human liver microsomes (0.5 mg protein mL^−1); tissue Life Technologies HMMCPL; host or cells: human liver microsomes
# T1 sequence (P11509 1-494): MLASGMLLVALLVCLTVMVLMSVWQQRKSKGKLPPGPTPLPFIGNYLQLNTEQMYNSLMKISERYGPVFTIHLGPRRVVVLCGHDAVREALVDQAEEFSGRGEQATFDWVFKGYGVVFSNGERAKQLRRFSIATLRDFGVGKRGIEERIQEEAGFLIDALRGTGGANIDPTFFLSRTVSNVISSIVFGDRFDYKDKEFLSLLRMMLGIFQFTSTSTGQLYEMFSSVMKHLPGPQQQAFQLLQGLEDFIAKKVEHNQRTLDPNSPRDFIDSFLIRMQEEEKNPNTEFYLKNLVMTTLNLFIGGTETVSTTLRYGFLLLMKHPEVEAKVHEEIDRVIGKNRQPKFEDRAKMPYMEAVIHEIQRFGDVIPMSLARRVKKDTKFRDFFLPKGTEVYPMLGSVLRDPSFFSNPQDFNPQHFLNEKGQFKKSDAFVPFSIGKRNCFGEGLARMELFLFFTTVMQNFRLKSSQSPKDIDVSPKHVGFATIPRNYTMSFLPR
# Method: (§1) To identify cytochrome P450 enzymes responsible for PU-HZ151’s metabolism in human liver microsomes the following procedure was followed. Phosphate buffer (100 mM, pH 7.4) was prepared monthly and stored at 4 °C. Frozen stock solutions of human liver microsomes (Life Technologies; Cat# HMMCPL) were used once after thawing and were not refrozen. NADPH stock solution (50 mM) in distilled water was prepared fresh daily. […] The stock solutions of these P450 inhibitors were prepared in DMSO. […] The concentration of the chemical inhibitors used in the assay were furafylline (10 μM), tranylcypromine (2 μM), ketoconazole (1 μM), troleandomycin (20 μM), orphenadrine (50 μM), montelukast (3 μM), sulfaphenazole (10 μM), benzylnirvanol (1 μM), quinidine (1 μM), and 1-aminobenzotriazole (1 mM) for all the P450 enzymes. Timing of the reactions was started following the addition of NADPH/magnesium chloride mix and PU-HZ151. Time-dependent chemical inhibitors (furafylline, troleandomycin, orphenadrine, and 1-aminobenzotriazole) were preincubated with human microsomes in the presence of NADPH and magnesium chloride for 15 min before the addition of PU-HZ151 and timing of reactions was started after addition of PU-HZ151. […] Following brief vortexing and centrifugation, a 200 µL aliquot of the supernatant was transferred to a tube, and 10 µL of haloperidol (1 µg mL^−1) as internal standard was added. Following brief vortexing and centrifugation, 50 µL of supernatant was added to a 96-well plate for subsequent LC-MS/MS analysis. PU-HZ151 was similarly tested as above in the absence of CYP inhibitors for comparative purposes. All samples were assayed in duplicate. […] This was similarly performed for incubations of PU-HZ151 performed in the absence of CYP inhibitor.
# CYP2D6 = target: T2, CYP2D6 (Homo sapiens, UniProt P10635); test: Cytochrome P450 profiling, quinidine; assay type: in vitro ADME; conditions: for % PU-HZ151 remaining: Quinidine
# T2 construct: tissue Life Technologies HMMCPL; host or cells: human liver microsomes
# T2 sequence (P10635 whole entry): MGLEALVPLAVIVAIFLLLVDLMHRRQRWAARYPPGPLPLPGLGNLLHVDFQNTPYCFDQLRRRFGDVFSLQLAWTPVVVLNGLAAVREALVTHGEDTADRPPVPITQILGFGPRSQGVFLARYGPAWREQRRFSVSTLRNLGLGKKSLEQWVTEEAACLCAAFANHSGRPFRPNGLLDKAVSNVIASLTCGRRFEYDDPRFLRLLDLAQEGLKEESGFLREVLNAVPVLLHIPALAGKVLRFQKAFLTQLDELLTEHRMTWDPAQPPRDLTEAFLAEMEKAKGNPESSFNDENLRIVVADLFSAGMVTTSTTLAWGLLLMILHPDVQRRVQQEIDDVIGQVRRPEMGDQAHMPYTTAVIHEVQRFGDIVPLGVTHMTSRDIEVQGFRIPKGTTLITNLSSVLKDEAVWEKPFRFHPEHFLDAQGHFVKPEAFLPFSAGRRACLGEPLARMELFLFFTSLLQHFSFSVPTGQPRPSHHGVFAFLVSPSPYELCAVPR
# Method: as §1
# all the P450 enzymes = test: Cytochrome P450 profiling, 1-aminobenzotriazole; assay type: in vitro ADME, human; conditions: for % PU-HZ151 remaining: ABT
# Method: as §1
# [1] = Acute toxicity, single IV infusion; assay type: in vivo, B6D2F1 mice; conditions: 2 mg/kg IV once, 14 days
# Text: Samus Therapeutics, Inc. Confidential 07-November-2017 […]
# other pathologic tissues, such as brain regions afflicted by neurodegeneration).This unique behavior of PU-AD provides the rationale for its favorable therapeutic index. It also provides the rationale for the use of a 124I-labeled PU-AD as a PET imaging agent to 1. detect tissues associated with stress HSP90 and 2. inform on the biodistribution and PK of PU -AD.
# To assess acute toxicity of a single intravenous (IV) infusion of PU-AD, B6D2F1 mice (15 males and 15 females/group) were dosed IV once with either vehicle control or PU-AD at a dose of 2 mg/kg, which corresponds to 200x the maximum intended human dose for the PU-AD PET study. […]
# normal behavior throughout. […] No abnormal findings were detected during gross necropsy, while complete histopathology evaluation is still pending. […]
# To asses if chronic administration of PU -AD presented any toxicities, a preliminary study in 13 (6 male & 7 female) B6C3F1 mice was conducted. […] Thyroid was evaluated because PU-AD contains an […]
# 124I-PU-AD radiation dosimetry is a key part of this pilot trial, and 124I-PU-AD radiation dosimetry analyses shall be ongoing during the trial. In brief, region -of-interest (ROI) image analysis of 124I-PU-AD PET data allows organ dosimetry, calculated using the MIRD formalism as […]
structure (smiles),measurement,setting,value
CC(C)(C)CNCCn1c(Sc2cc3c(cc2I)OCO3)nc2c(N)ncnc21 [Compound 85],% PU-HZ151 remaining,CYP2A6; 15 min,57.2%
same,% PU-HZ151 remaining,CYP2A6; 30 min,36.6%
same,% PU-HZ151 remaining,CYP2A6; 60 min,18.4%
same,inhibition of PU-HZ151 metabolism,CYP2A6; tranylcypromine,essentially no effect
same,% PU-HZ151 remaining,CYP2D6; 15 min,62.9%
same,% PU-HZ151 remaining,CYP2D6; 30 min,43.9%
same,% PU-HZ151 remaining,CYP2D6; 60 min,26.6%
same,inhibition of PU-HZ151 metabolism,CYP2D6; quinidine,11%
same,inhibition of PU-HZ151 metabolism,all the P450 enzymes; 1-aminobenzotriazole,75%
same,% PU-HZ151 remaining,all the P450 enzymes; 15 min,90.5%
same,% PU-HZ151 remaining,all the P450 enzymes; 30 min,83.9%
same,% PU-HZ151 remaining,all the P450 enzymes; 60 min,79.6%
same,acute toxicity,[1],No mortality or morbidity was observed
